No end group written: not given here.

Data set [1] concerns nNOS^VMH neurons. Kind of data set: Lordosis test after chemogenetic inhibition (hM4D(Gi) DREADD) of nNOS^VMH neurons with CNO. The class given is in vivo, mice. As for the experimental part:
(§1) Female sexual behavior test. Estrus female mice were tested for lordosis behavior over the dark phase following previously reported protocols (25, 40). During the annotation of sexual behavior, we also assessed sexual rejection behaviors over the same period of time.
(§2) Chemogenetic manipulations (viral transfection, stereotaxic injections, and behavioral assessment). The AAV9 double floxed Gi-coupled hM4D DREADD fused with fluorescent mCherry protein under the control of human synapsin promoter (AAV-hSyn-DIO-hM4D(Gi)-mCherry) (Addgene; catalog #44362-AAV9) was stereotaxically injected into the vlVMH of Nosl-ires-cre female mice under 4% isoflurane anesthesia with constant airflow. Lordosis test was carried out as described above with sexually experience female mice after three lordosis test trials. Females received i.p. injection with 100 μL of clozapine N-oxide dihydrochloride (CNO; Tocris; catalog #6329), at a dose of 3 mg/kg diluted in sterile saline, one hour before behavioral assessment. Each mouse received either CNO or saline (vehicle) in a random order, and the two behavioral assessments were performed ten days apart.
Among the three hypothalamic areas investigated in our study, the VMH (nNOS^VMH) is considered as the NOergic output responsible to control sexual performance in mammalian females (23), whereas nNOS^RP3V and nNOS^ARN are likely to contribute to the neuroendocrine control of GnRH/LH secretion (57, 58). […] To this end, we selectively targeted the expression of designer receptors exclusively activated by designer drugs (DREADD)-based tool hM4(Gi) into the VMH of Nos1cre/+ (Nos1-ires-cre; B6.129-Nos1tm1(cre)Mgmj/J) female mice (59). Viral transduction was established using a Cre-recombinase-dependent adeno-associated virus serotype 9 in which hM4 (Gi) is fused with mCherry reporter under the control of human synapsin (hSyn) promoter (AAV9-hSyn-DIO-hM4D(Gi)-mCherry) (Data not shown). The control group was composed of wild-type female mice receiving the same stereotaxic surgery. This approach provided an average efficiency of 86.82±2.33% of nNOS^VMH neurons targeted with AAV9-hM4 (Gi)-mCherry and with an off-target infection rate of 5.48±2.17% in non-nNOS^VMH neurons (N=5; Data not shown).
Following viral transfection, Nos1^cre/+ female mice were subjected to two lordosis tests and randomly received either vehicle or the DREADD ligand clozapine N-oxide (CNO; 3 mg/kg) one hour before behavioral assessment.

Data set [2] relates to nNOS^VMH neurons. In words: Lordosis test with CNO pre-treatment followed by kisspeptin-10 (kisspeptin-nNOS^VMH coupling). Type of data set: in vivo, mice. The procedure:
as §2
(§3) Pharmacological treatments. SNAP: Female mice received a subcutaneous (s.c.) injection with 8 mg/kg S-nitroso-N-Acetyl-DL-Penicillamine (SNAP) (Sigma-Aldrich; catalog ##N3398) diluted in 100 μL of saline 15 minutes before behavioral testing and the chosen dose was based on previous reports (25). Kisspeptin: Female mice received a s.c. injection with 0.52 μg/kg kisspeptin-10 (Kiss-10; rodent metastin (45-54) amide; GeneCust; YY-10-NH2) diluted in 100 μL of saline 30 minutes before behavioral test based on previous reports (25). Sildenafil citrate: Female mice received an i.p. injection with 15 mg/kg sildenafil citrate (Sigma-Aldrich; catalog #171599-83-0) 1h before behavioral assessment based on previous trials from our laboratory (Chachlaki et al., unpublished data). Sildenafil citrate was firstly diluted in dimethyl sulfoxide (DMSO) to make up a stock solution of 25 mg/mL and further diluted with sterile saline to make up a working solution of 15 mg/mL for s.c. injection on the day of the injection.
Using a similar approach as described above, we stereotaxically delivered the expression of AAV9-hM4(Gi)-mCherry in nNOS^VMH neurons in both Nos1cre/+ and wild-type female mice. […]

Data set [3] has as its system control and PAMH female mice. In words: Female sexual behavior test (lordosis, mild and severe rejection quotients) after pharmacological treatment. Type of data set: in vivo. As for the experimental part:
as §1
All behavior tests were videotaped and manually annotated using Behavioral Observation Research Interactive Software (BORIS) (76).
as §3
Previous reports indicate that the control of female sexual behavior is highly dependent upon NOergic signaling in rodents (23-25). Having established the loss of nNOS expression in hypothalamic sites in PAMH mice, we next addressed whether the replenishment of NO levels could rescue normal sexual function in these females. Control and PAMH female mice were injected either with saline or S-nitroso-N-acetylpenicillamine (SNAP; 8 mg/kg), a well-known NO donor to boost circulating NO levels.
NO-mediated physiological responses are mostly dictated by intracellular levels of cyclic guanosine monophosphate (cGMP). Commonly used drugs for male sexual dysfunction, such as sildenafil citrate, commercialized as Viagra®, enhance NOergic signaling by decreasing the degradation of cGMP accumulating intracellular levels of the latest. To determine the severity of NO insufficiency in PAMH mice, we administered sildenafil citrate to both groups and evaluated lordosis behavior.

In another data set the test system is cFOS. Kind of data set: Percentage of cells expressing cFOS in hypothalamic and limbic areas following the lordosis test. Type of data set: in vivo, mice. The procedure: Immunohistochemistry. Tissue preparation for immunohistochemistry is shown in SI Appendix. Free-floating immunohistochemistry was performed as described elsewhere (29, 73). Primary antibodies were used at the respective concentrations: polyclonal sheep anti-nNOS (1:2,000; generous gift from Dr. Piers C. Emson and validated elsewhere (74)), polyclonal rabbit anti-PR (1:500; Sigma; catalog #SAB4502184), rabbit anti-red fluorescent protein (RPF) (1:500; Rockland Immunochemicals, Inc.; catalog #600-401-379), and polyclonal chicken anti-GFP (1:1,000; Aves Labs Inc., catalog #GFP-1020). Brain sections were incubated with a cocktail of primary antibodies and 2% normal donkey serum (NDS) in incubation solution (0.25% bovine serum albumin with 0.3% Triton in TBS) over 48 hours at 4° C. Following washes with TBS, brain sections were incubated with secondary antibodies. Alexa Fluor 488 donkey anti-sheep (reference #A11015), Alexa Fluor 647 donkey anti-rabbit, (reference #A31573), Alexa Fluor 568 donkey anti-rabbit (reference #A10042) were all purchased from Thermo Fisher Scientific Inc. and used at 1:400 dilution in TBS solution. Alexa Fluor 488 donkey anti-chicken (Jackson ImmunoResearch Labs; reference #703-545-155) was used at 1:500 dilution in TBS solution. Sections were mounted onto glass slides and left to dry until covered with Fluoromount-G™ with DAPI (Invitrogen/Thermo Fisher Scientific Inc.; reference #00-4959-52), and coverslipped.
Image acquisition and analysis. Two representative brain sections from each region (RP3V, VMH, rARN, mARN, and cARN) were chosen from each animal for Immunohistological analysis. Brain sections were firstly examined using an Axio Imager, Z1 ApoTome microscope (Zeiss, Oberkochen, Germany), and an AxioCam MRm camera (Zeiss). Confocal imaging and analyses Zeiss Spinning-Disk microscope Yokogawa CSU-X1 model (Zeiss; BioImaging Center Lille (BICeL), of the University of Lille, France). High magnification images were acquired taking Z-stacks of 0.5 μm-steps using a 40x-oil objective (1.30 NA). Confocal images were further processed with ImageJ software for cell counting analysis. Final analysis considered the average counting from two representative sections of each region.
We aimed to determine how 8 mg/kg SNAP treatment may change the neuronal activation landscape in the female brain in estrus control and PAMH mice following the lordosis test. […]

The conditions of data set [4]: cited from earlier work.
The mark [5] stands for this setting: Nos1cre/+ female mice, CNO 3 mg/kg, P<0.01.
Where [6] appears, read: wild-type control group with same surgery, CNO 3 mg/kg.
[7] abbreviates: PAMH female mice, SNAP 8 mg/kg, P<0.0001, similar to control levels.
[8] abbreviates: control female mice, SNAP 8 mg/kg.

Take `C[N+]1([O-])CCN(C2=Nc3cc(Cl)ccc3Nc3ccccc32)CC1.Cl.Cl` [CNO, clozapine N-oxide dihydrochloride]: the “lordosis quotient (LQ)” value in the data set with nNOS^VMH neurons [1] (Nos1cre/+ female mice with AAV9-hM4D(Gi)-mCherry in VMH, CNO 3 mg/kg i.p. one hour before test, P<0.01 vs vehicle) was 4.24±2.26. Moreover, in the data set on nNOS^VMH neurons [1] (setting [5]), the “mild rejection behavior vs vehicle-injected mice” value is “higher” and the “severe rejection behavior vs vehicle-injected mice” value is reported as “higher”. Moreover, in the data set on nNOS^VMH neurons [1] (setting [6]), the “lordosis behavior, CNO vs vehicle” value is recorded as “did not show any difference between treatments”; the “mild rejection behavior, CNO vs vehicle” value is “did not show any difference between treatments”; the “severe rejection behavior, CNO vs vehicle” value is reported as “did not show any difference between treatments”. In the data set on nNOS^VMH neurons [2] (Nos1cre/+ female mice, CNO pre-treatment, P<0.01), the “sexual (lordosis) behavior” value is “caused significant disruption of sexual behavior”. The lordosis behavioral output entry in the data set on nNOS^VMH neurons [2] (control (wild-type) female mice, CNO alone, pre-injection -60 min) is on record as “did not have any effect”.
For the molecule “rodent metastin (45-54) amide (YNWNSFGLRY-NH2; UniProt Q6Y4S4 110-119, looked up) [kisspeptin-10, kisspeptin-10 peptide from GeneCust]”, the lordosis performance result in the data set with nNOS^VMH neurons [2] (control (wild-type) female mice, kisspeptin-10 0.52 μg/kg, -30 min, P<0.05) was “significantly enhanced lordosis performance”.
Turning to `CC(=O)NC(C(=O)O)C(C)(C)SN=O` (racemic) [SNAP, S-nitroso-N-Acetyl-DL-Penicillamine], in data set [3] (PAMH female mice, SNAP 8 mg/kg s.c. 15 minutes before test, mean±SEM), the “lordosis quotient (LQ)” value was 68.17±6.97. For the same molecule, the “fold increase of lordosis behavior vs saline” value in data set [3] (PAMH female mice, SNAP 8 mg/kg vs saline) was approximately 7.28 fold. The “lordosis behavior (in words)” value in data set [3] (PAMH female mice, SNAP 8 mg/kg, P<0.0001) is given as “robustly recovered normal lordosis behavior in PAMH female mice similar to control levels”. Moreover, the “mild rejection behavior (MRQ)” value in data set [3] (setting [7]) is “significantly reduced”; in data set [3] (setting [8]), “did not change these parameters”. For the same molecule, the “severe rejection behavior (SRQ)” value in data set [3] (setting [7]) is “significantly reduced”; in data set [3] (setting [8]), “did not change these parameters”. Besides, the “cFOS expression in vlPAG and dmPAG” value with cFOS (PAMH mice, SNAP 8 mg/kg) was “did not alter cFOS expression”; in the data set with cFOS (control mice, SNAP 8 mg/kg vs vehicle, P<0.05) it was “lower cFOS expression compared with vehicle-treated control mice”. Moreover, in the data set with cFOS (PAMH mice, SNAP 8 mg/kg, P<0.05), the “proportion of nNOS neurons expressing cFOS (vlVMH, pdMeA)” value is given as “fully restored the proportion of nNOS cells expressing cFOS to control levels”. Further, in the data set with cFOS (estrus PAMH mice, SNAP 8 mg/kg, after lordosis test), the “cFOS expression in MPA, MnPO, vlVMH and pdMeA” value was “increased cFOS expression in all of these four regions in PAMH mice to control levels”.
In the case of `[N]=O` [Nitric oxide], the “half-life in the blood” value in data set [4] is “a few seconds”.
